Assay results reported in patent US20060079550A1, “Amino acid derivatives useful for the treatment of alzheimer's disease” (priority 2001, published 2006).

Target: aspartyl proteases, in particular, beta-secretase
Test: Ki of the compounds listed in Tables 1 and 2 (no method described)
Type: biochemical
Details: Table 1, compounds of formula Ia, W is -(CH2)n-

SMILES | Ki [µM]
CC(C)CN([C@@H](CCCCNC(=O)OCC1c2ccccc2-c2ccccc21)C(=O)O)S(=O)(=O)c1ccc(N)cc1 [Compound No. 44, Nα-(4-aminobenzenesulfonyl)-Nα-isobutyl-Nε-(9-fluorenylmethoxycarbonyl)-L-lysine] | 0.0021
CC(C)CN(C(=O)c1ccccc1)[C@@H](CCCCNC(=O)OCC1c2ccccc2-c2ccccc21)C(=O)O [Compound No. 46, Nα-isobutyl-Nα-benzoyl-Nε-(9-fluorenylmethoxycarbonyl)-Llysine] | > 0.1
O=C(N[C@@H](CCCCNS(=O)(=O)c1ccccc1)C(=O)O)OCC1c2ccccc2-c2ccccc21 [Compound No. 49, Nε-benzenesulfonyl-Nα-(9-fluorchylmethoxycarbonyl)-L-lysine] | 8.9
O=C(N[C@@H](CCCCNS(=O)(=O)c1ccc([N+](=O)[O-])cc1)C(=O)O)OCC1c2ccccc2-c2ccccc21 [Compound No. 50, Nε-(4-nitrobenzenesulfonyl)-Nα-(9-fluorenylmethoxycarbonyl)-L-lysine] | 6
Nc1ccc(S(=O)(=O)NCCCC[C@H](NC(=O)OCC2c3ccccc3-c3ccccc32)C(=O)O)cc1 [Compound No. 52, Nε-(4-aminobenzenesulfonyl)-Nα-(9-fluorenylmethoxycarbonyl)-L-lysine] | 6.8
O=C(N[C@@H](CCCCNS(=O)(=O)c1ccc(Cl)cc1)C(=O)O)OCC1c2ccccc2-c2ccccc21 [Compound No. 53, Nε-(4-chlorobenzenesulfonyl)-Nα-(9-fluorenylmethoxycarbonyl)-L-lysine] | 4.8
O=C(N[C@@H](CCCCNS(=O)(=O)c1cc(Cl)ccc1Cl)C(=O)O)OCC1c2ccccc2-c2ccccc21 [Compound No. 54, Nε-(2,5-dichlorobenzenesulfonyl)-Nα-(9-fluorenylmethoxycarbonyl)-L-lysine] | > 6.25
O=C(N[C@@H](CCCCNS(=O)(=O)c1ccc(F)cc1)C(=O)O)OCC1c2ccccc2-c2ccccc21 [Compound No. 55, Nε-(4-fluorobenzenesulfonyl)-Nα-(9-fluorenylmethoxycarbonyl)-L-lysine] | 6.5
O=C(O)[C@H](CCCNS(=O)(=O)c1ccc(Br)cc1)NS(=O)(=O)c1ccc(Br)cc1 [Compound No. 57, Nα,Nε-di-(4-bromobenzenesulfonyl)-L-ornithine] | 42.4
O=C(O)[C@H](CCCN(Cc1ccc(F)cc1)S(=O)(=O)c1ccc(Br)cc1)NS(=O)(=O)c1ccc(Br)cc1 [Compound No. 59, Nα,Nδ-di-(4-bromobenzenesulfonyl)-Nδ-(4-fluorobenzyl)-L-ornithine] | > 34.9
O=C(O)[C@H](CCCCN(Cc1ccc(F)cc1)S(=O)(=O)c1ccc(Br)cc1)NS(=O)(=O)c1ccc(Br)cc1 [Compound No. 60, Nα,Nε-di-(4-bromobenzenesulfonyl)-Nε-(4-fluorobenzyl)-L-lysine] | > 50
O=C(N[C@@H](CCCNS(=O)(=O)c1ccc([N+](=O)[O-])cc1)C(=O)O)OCC1c2ccccc2-c2ccccc21 [Compound No. 62, Nδ-(4-nitrobenzenesulfonyl)-Nα-(9-fluorenylmethoxycarbonyl)-L-ornithine] | 26.2
O=C(N[C@@H](CCCCNS(=O)(=O)c1ccc(I)cc1)C(=O)O)OCC1c2ccccc2-c2ccccc21 [Compound No. 64, Nε-(4-iodobenzenesulfonyl)-Nα-(9-fluorenylmethoxycarbonyl)-L-lysine] | 19.2
O=C(N[C@@H](CCCCNS(=O)(=O)c1ccc(Br)cc1)C(=O)O)c1ccccc1 [Compound No. 65, Nα-benzoyl-Nε-(4-bromobenzenesulfonyl)-L-lysine] | > 50
O=C(NCCCC[C@H](NS(=O)(=O)c1ccc(Br)cc1)C(=O)O)OCC1c2ccccc2-c2ccccc21 [Compound No. 66, Nα-(4-bromobenzenesulfonyl)-Nε-(9-fluorenylmethoxycarbonyl)-L-lysine] | 1.9
Cc1ccc(S(=O)(=O)N(CC(C)C)[C@@H](CCCCNC(=O)OCC2c3ccccc3-c3ccccc32)C(=O)O)cc1 [Compound No. 67, Nα-isobutyl-Nα-(4-methylbenzenesulfonyl)-Nε-(9-fluorenylmethoxycarbonyl)-L-lysine] | 0.0043
Nc1ccc(S(=O)(=O)NCCC[C@H](NC(=O)OCC2c3ccccc3-c3ccccc32)C(=O)O)cc1 [Compound No. 69, Nδ-(4-aminobenzenesulfonyl)-Nα-(9-fluorenylmethoxycarbonyl)-L-ornithine] | 23.8
O=C(NCCCC[C@H](NS(=O)(=O)c1ccccc1[N+](=O)[O-])C(=O)O)OCC1c2ccccc2-c2ccccc21 [Compound No. 70, Nα-(2-nitrobenzenesulfonyl)-Nε-(9-fluorenylmethoxycarbonyl)-L-lysine] | > 12.5
O=C(NCCCC[C@H](NC(=O)OCC1c2ccccc2-c2ccccc21)C(=O)O)OCC1c2ccccc2-c2ccccc21 [Compound No. 71, Nα,Nε-di-(9-fluorenylmethoxycarbonyl)-L-lysine] | 44.8

SMILES | Ki [µM]
O=C(NCCCC[C@H](NS(=O)(=O)c1ccc(Cl)cc1)C(=O)O)OCC1c2ccccc2-c2ccccc21 [Compound No. 72, Nα-(4-chlorobenzenesulfonyl)-Nε-(9-fluorenylmethoxycarbonyl)L-lysine] | 2.39
O=C(NCCC[C@H](NC(=O)OCC1c2ccccc2-c2ccccc21)C(=O)O)OCC1c2ccccc2-c2ccccc21 [Compound No. 73, NαNδ-di-(9-fluorenylmethoxycarbonyl)-L-ornithine] | 1.3
Cc1ccc(S(=O)(=O)N(CC(C)C)[C@@H](CCCCNC(=O)OCc2ccccc2)C(=O)OCc2ccccc2)cc1 [Compound No. 75, Nα-isobutyl-Nα-(4-methylbenzenesulfonyl)-Nε-benzyloxycarbonyl-L-lysine Benzyl Ester] | > 1.25
CC(C)CN([C@@H](CCCCNC(=O)OCc1ccccc1)C(=O)OCc1ccccc1)S(=O)(=O)c1ccc([N+](=O)[O-])cc1 [Compound No. 78, Nα-isobutyl-Nα-(4-nitrobenzenesulfonyl)-Nε-benzyloxycarbonyl-L-lysine Benzyl Ester] | > 1.25
CC(C)CN([C@@H](CCCCNC(=O)CCc1ccccc1)C(=O)O)S(=O)(=O)c1ccc([N+](=O)[O-])cc1 [Compound No. 94, Nα-isobutyl-Nα-(4-nitrobenzenesulfonyl)-Nε-dihydrocinnamoyl-L-lysine] | 0.0339
CC(C)CN([C@@H](CCCCNC(=O)CCc1c[nH]c2ccccc12)C(=O)O)S(=O)(=O)c1ccc([N+](=O)[O-])cc1 [Compound No. 95, Nα-isobutyl-Nα-(4-nitrobenzenesulfonyl)-Nε-(3-indolepropionyl)-L-lysine] | 0.0334
CC(C)CN([C@@H](CCCCNC(=O)C1c2ccccc2Oc2ccccc21)C(=O)O)S(=O)(=O)c1ccc([N+](=O)[O-])cc1 [Compound No. 96, Nα-isobutyl-Nα-(4-nitrobenzenesulfonyl)-Nε-(9xanthenecarbonyl)-L-lysine] | 0.0439
CC(C)CN([C@@H](CCCCNC(=O)CCc1c[nH]c2ccccc12)C(=O)O)S(=O)(=O)c1ccc(N)cc1 [Compound No. 98, Nα-isobutyl-Nα-(4-aminobenzenesulfonyl)-Nε-(3-indolepropionyl)-L-lysine] | 0.0101
O=C(NCCCC[C@H](NS(=O)(=O)c1cccc2ccccc12)C(=O)O)OCC1c2ccccc2-c2ccccc21 [Compound No. 102, Nα-(1-naphthalenesulfonyl)-Nε-(9-fluorenylmethoxycarbonyl)-L-lysine] | 2.32
O=C(NCCCC[C@H](NS(=O)(=O)c1ccc([N+](=O)[O-])cc1)C(=O)O)OCC1c2ccccc2-c2ccccc21 [Compound No. 103, Nα-(4-nitrobenzenesulfonyl)-Nε-(9-fluorenylmethoxycarbonyl)-L-lysine] | 3.3
COc1ccc(S(=O)(=O)N[C@@H](CCCCNC(=O)OCC2c3ccccc3-c3ccccc32)C(=O)O)cc1 [Compound No. 104, Nα-(4-methoxylbenzenesulfonyl)-Nε-(9-fluorenylmethoxycarbonyl)-L-lysine] | 3.16
Nc1ccccc1S(=O)(=O)N[C@@H](CCCCNC(=O)OCC1c2ccccc2-c2ccccc21)C(=O)O [Compound No. 105, Nα-(2-aminobenzenesulfonyl)-Nε-(9-fluorenylmethoxycarbonyl)-L-lysine] | 16
Nc1ccc(S(=O)(=O)N[C@@H](CCCCNC(=O)OCC2c3ccccc3-c3ccccc32)C(=O)O)cc1 [Compound No. 106, Nα-(4-aminobenzenesulfonyl)-Nε-(9-fluorenylmethoxycarbonyl)-L-lysine] | 4.49
O=C(NCCCC[C@H](NS(=O)(=O)c1ccccc1[N+](=O)[O-])C(=O)O)OCC1c2ccccc2-c2ccccc21 [Compound No. 107, Nα-(2-nitrobenzenesulfonyl)-Nε-(9-fluorenylmethoxycarbonyl)-L-lysine] | 3.97
CC(C)CN([C@@H](CCCCNC(=O)C=Cc1cccc([N+](=O)[O-])c1)C(=O)O)S(=O)(=O)c1ccc([N+](=O)[O-])cc1 [Compound No. 108, Nα-isobutyl-Nα-(4-nitrobenzenesulfonyl)-Nε-(3-nitrocinnamoyl)-L-lysine] | > 0.3
CC(C)CN(C(CCCCNC(=O)C=Cc1ccccc1[N+](=O)[O-])C(=O)O)S(=O)(=O)c1ccc([N+](=O)[O-])cc1 [Compound No. 109, Nα-isobutyl-Nα-(4-nitrobeiizenesulfonyl)-Nε-(2-nitrocinnamoyl)-L-lysine] | > 0.3
CC(C)CN([C@@H](CCCCNC(=O)C=Cc1ccc([N+](=O)[O-])cc1)C(=O)O)S(=O)(=O)c1ccc([N+](=O)[O-])cc1 [Compound No. 111, Nα-isobutyl-Nα-(4-nitrobenzenesulfonyl)-Nε-(4-nitrocinnamoyl)-L-lysine] | 0.0344
COc1ccc(C=CC(=O)NCCCC[C@@H](C(=O)O)N(CC(C)C)S(=O)(=O)c2ccc([N+](=O)[O-])cc2)cc1 [Compound No. 113, Nα-isobutyl-Nα-(4-nitrobenzenesulfonyl)-Nε-(4-methoxycinnamoyl)-L-lysine] | > 0.3
CC(C)CN([C@@H](CCCCNS(=O)(=O)Cc1ccccc1)C(=O)O)S(=O)(=O)c1ccc([N+](=O)[O-])cc1 [Compound No. 115, Nα-isobutyl-Nα-(4-nitrobenzenesulfonyl)-Nε-benzylsulfonyl-L-lysine] | > 0.3
